This is an account of results in US20130115256A1, “METHODS FOR TREATING OR PREVENTING VASCULAR GRAFT FAILURE” (priority 2010, published 2013).

One test relates to THP-1 cells. Briefly: TNF-α and IL-1β production in PMA/LPS-treated THP-1 cells (ELISA). The format is cell-based, human. On the procedure:
The ability of MMI-0100 ([…]; SEQ ID NO: 1) to inhibit the production of inflammatory cytokines (TNF-α and IL-1β) in vitro was examined using THP-1 cells. Briefly, THP-1 cells were activated with PMA for 24 hours, and treated subsequently with 10 μg of LPS. The amount of inflammatory cytokines (TNF-α and IL-1β, pg/ml) produced in the medium in the presence or absence of increasing concentrations (1 μM, 3 μM, 10 μM, and 30 μM) of MMI-0100 ([…]; SEQ ID NO: 1) was determined by cytokine specific enzyme-linked immunosorbent assay (ELISA). Analysis of inflammatory cytokines (TNF-α and IL-1β) was performed with cytokine-specific ELISA kit (PeproTech, Inc., Rocky Hill, N.J.). The cytokine-specific ELISA employs highly-purified anti-cytokine antibodies (capture antibodies) that are noncovalently adsorbed (“coated”) onto plastic microwell plates. After washings, the immobilized antibodies capture specifically soluble cytokine proteins present in samples applied to the plate. After washing away unbound material, the captured cytokine proteins are detected by biotin-conjugated anti-cytokine antibodies (detection antibodies) followed by an enzyme-labeled avidin or streptavidin reporter. Following addition of a chromogenic (color-developing) substrate-containing solution, the level of colored product generated by the bound, enzyme-linked, detection reagents can be measured spectrophotometrically using an ELISA-plate reader at an appropriate optical density.
In order to prepare plates for ELISA, capture antibodies (anti-TNF-α or anti-IL-1β antibodies) were diluted with PBS to a concentration of 1 μg/ml. 100 μl of each diluted antibody was added immediately to each well of the ELISA plate. […]
The standard was diluted from 2 ng/ml to zero in diluent, and 100 μl of the standard or sample was added immediately to each well in triplicate and incubated at room temperature for at least 2 hours. […] The level of colored product generated by the bound, enzyme-linked, detection reagents was measured spectrophotometrically using an ELISA-plate reader at an appropriate optical density.
(ELISA stands for enzyme-linked immunosorbent assay.)

Test [1] concerns human saphenous vein (HSV). Briefly: Sodium nitroprusside-induced relaxation of human saphenous vein in muscle bath. Particulars: for relaxation (percent relaxation): 100 μM pretreatment, phenylephrine 10^-6 M. On the procedure:
In preparation for testing vein segment functional viability, HSV rings were weighed and their lengths recorded. To focus on smooth muscle responses, the endothelium was mechanically denuded by rolling the luminal surface of each ring at the tip of a fine vascular forceps before suspension in a muscle bath containing a bicarbonate buffer (120 mM NaCl, 4.7 mM KCl, 1.0 mM MgSO4, 1.0 mM NaH2PO4, 10 mM glucose, 1.5 mM CaCl2, and 25 mM […], pH 7.4) equilibrated with 95% O2 and 5% CO2 at 37° C. The rings were stretched and the length progressively adjusted until maximal tension was obtained. Normalized reactivity was obtained by determining the passive length-tension relationship for each vessel segment. Rings were maintained at a resting tension of 1 g, which produces maximal responses to contractile agonists as previously determined, and equilibrated for 2 hours in buffer. Force measurements were obtained using a Radnoti Glass Technology (Monrovia, Calif.) force transducer (159901A) interfaced with a Powerlab data acquisition system and Chart software (AD Instruments, Colorado Springs, Colo.).
HSV rings were first contracted with 110 mM KCl (with equimolar replacement of NaCl in bicarbonate buffer) and the generated force was measured. 110 mM KCl causes membrane depolarization, leading to contraction of vessels containing functionally viable smooth muscle. After multiple KCl challenges, rings were washed and allowed to equilibrate in bicarbonate solution for 30 min, and then contracted with phenylephrine (PE, 10^−7-10^−6 M). Rings were relaxed with a cumulative log dose of sodium nitroprusside (SNP), a nitric oxide donor, and the force generated was recorded. All rings were again washed and equilibrated in buffer for 15 minutes. Rings were then incubated with either buffer alone or buffer plus 100 μM of MMI-0100 ([…] (SEQ ID NO: 1)) for 2 hours, followed by treatment with the same doses of PE and SNP, and the forces generated again recorded. Measured force was normalized for ring weight and length and percent relaxation was calculated; force generated with 10^−6M of PE was set as 0% relaxation.
The enhancing effect of MMI-0100 ([…]; SEQ ID NO: 1) on smooth muscle relaxation was examined by pre-treating harvested human saphenous vein (HSV) with MMI-0100 ([…]; SEQ ID NO: 1) before SNP treatment. Segments of human saphenous vein (HSV) were equilibrated in a muscle bath and pretreated with a control solution (0.01M phosphate-buffered solution, PBS) or MMI-0100 ([…] (SEQ ID NO: 1); 30 μM, 2 hrs), contracted with norepinephrine. and relaxed with increasing doses of sodium nitroprusside (SNP, 0-1 μM). Percentage of relaxation at 0, 0.01, 0.1, and 1.0 μM of SNP was measured. […]

Regarding YARAAARQARAKALARQLGVAA [MMI-0100], in the test with THP-1 cells (30 μM MMI-0100, PMA then LPS (stimulated control about 450 pg/ml)), the “IL-1β level in the medium” value is on record as “about 100 pg/ml”. In addition, the “TNF-α level in the medium” value with THP-1 cells (30 μM MMI-0100, PMA then LPS (stimulated control about 1000 pg/ml)) is listed as “about 300 pg/ml”. The “production of pro-inflammatory cytokines (TNF-α and IL-1β)” value in the test on THP-1 cells (1, 3, 10, 30 μM MMI-0100) was “dose-dependent manner”. In addition, the “increase in relaxation compared to HSV pretreated with control solution” value in test [1] (30 μM, 2 hrs pretreatment, norepinephrine contraction, SNP 0-1 μM, n=3) is listed as “about 40%”. The “relaxation (percent relaxation)” value in test [1] (10^-7 M SNP (untreated control 72.768±6.99)) is on record as 92.54±3.09; in test [1] (10^-8 M SNP (untreated control 10.825±5.62)), 25.622±6.38.
